# Earlier results, collected in patent US10258642B2, “Dextran sulfate for use in mobilization of cells” (TX MEDIC AB, priority 2013, dated 2019).
# Where two headings read alike, the source gives them in different places.
# What was measured:
# CFU-GM = conditions: cited from earlier work
# [1] = system: colony forming cells (CFCs); conditions: monkeys (Sweeney 2000, 2002); cited from earlier work
# [2] = system: colony forming cells (CFCs); conditions: mice (Sweeney 2000, 2002); cited from earlier work
substance,measurement,setting,value
dextran sulfate [dextran sulfate 10 kDa],CFU-GM level,"CFU-GM; colonies with >50 cells, G-CSF 10 μg/kg daily for five days and/or dextran sulfate 15 mg/kg once on day 5 (Han 1998)",12.9±1.6 colonies
same,"time of peaks in peripheral WBC, MNC and CFU-GM","CFU-GM; i.v. injection of 15-30 mg, mice (Han 1998)",2 to 5 h
same,time of CFC mobilization after dextran sulfate administration,[1],6 h
same,time of CFC mobilization after dextran sulfate administration,[2],3 h
